Data taken from patent publication US20230158025A1 (UNIVERSITY OF UTAH RESEARCH FOUNDATION, priority 2020, published 2023).
Where two headings read alike, the source gives them in different places.

Legend:
[1] = rat microsomal stability (RLM); conditions: for half-life: rat, rat liver microsomes
recombinant mouse GALK1 = recombinant mouse GALK1 (Mus musculus, UniProt Q9R0N0); assay: mGALK1 biochemical activity assay (Kinase-Glo Plus, ATP depletion)
How it was run: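 Recombinant GALK1 (5 nM) with 100 μM galactose; GALK1 turnover read as ATP depletion by Kinase-Glo Plus luminescence. Reaction ran 1 h at room temperature before detection reagent was added.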

[2] = aqueous kinetic solubility
recombinant human GALK1 = recombinant human GALK1 (Homo sapiens, UniProt P51570); assay: hGALK1 biochemical activity assay (Kinase-Glo Plus, ATP depletion)
Chain of recombinant human GALK1 (P51570 whole entry): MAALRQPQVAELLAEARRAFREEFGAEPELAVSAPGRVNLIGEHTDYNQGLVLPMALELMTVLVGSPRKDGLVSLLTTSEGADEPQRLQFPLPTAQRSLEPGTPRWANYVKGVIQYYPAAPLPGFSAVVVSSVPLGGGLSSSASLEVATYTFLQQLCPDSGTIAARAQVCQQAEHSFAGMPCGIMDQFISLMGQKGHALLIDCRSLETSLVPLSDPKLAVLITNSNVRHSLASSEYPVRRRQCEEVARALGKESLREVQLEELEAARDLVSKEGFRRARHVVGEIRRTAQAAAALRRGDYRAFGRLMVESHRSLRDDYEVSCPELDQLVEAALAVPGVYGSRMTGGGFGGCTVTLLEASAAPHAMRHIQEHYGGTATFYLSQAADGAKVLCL
How it was run: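 Turnover is measured as ATP depletion by Kinase-Glo Plus luminescence after a 1 h room-temperature reaction. Compounds span 11 concentrations, 57.4 μM–0.97 nM, in final 20 mM HEPES pH 8.0 with 5 mM MgCl2. The substrate solution held 35 μM ATP; the added solution held 5 nM human or mouse GALK1 and 100 μM galactose.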

hGALK1m = target: T1, hGALK1m (Homo sapiens, UniProt P51570, E253A/K252A); assay: in vitro hGALK1 activity assay of the structure-based optimisation (Example 12, Tables 17-20); type: biochemical
T1 construct: made in house; host or cells: E. coli HMS174
T1 sequence (P51570 whole entry K252A/E253A): as the sequence (P51570 whole entry) above, with K252A, E253A counted along it
Method: In vitro hGALK1 activity assays were performed as previously described. Liu et al., Bioorg. Med. Chem. Lett. 25(3): 721-727 (2015), which is incorporated by reference herein for the specific teachings thereof. The biochemical assay was performed by coupling the activity of recombinant human or mouse GALK1 to the Kinase-Glo Plus luminescent ATP detection kit, using ATP depletion as a measure of GALK1 turnover. Specifically, three μL/well of ATP substrate solution (35 μM ATP) in assay buffer (20 mM HEPES pH 8.0, 5 mM MgCl2, 60 mM NaCl, 1 mM DTT, 0.01% BSA final concentration) was dispensed into 1536-well assay plates (Greiner, white solid-bottom medium-binding plates). Aliquots of compound (23 nL solubilized in DMSO) were transferred to the assay plates using a Kalypsys 1536-well pintool such that 11 concentrations with 1/3 dilutions ranging from 57.4 μM-0.97 nM are tested. One μL/well of GALK-galactose solution (5 nM GALK1, 100 μM galactose) in assay buffer was then added, yielding a final reaction volume of 4 μL/well. Following a 1-hour room temperature incubation, 4 μL of Kinase-Glo Plus detection reagent was added to provide an ATP-dependent luminescent readout (final assay volume: 8 μL/well). Luminescence was detected using a ViewLux plate reader (PerkinElmer) after a 10-minute incubation, using a 1 second exposure time and 2× binning.
The in vitro hGALK1 activity assay was performed as previously described. Liu et al., Bioorg. Med. Chem. Lett. 25(3): 721-727 (2015). For the measurement of cellular Gal-1P reduction, compounds at different concentrations were added to cultured patient fibroblast at 80% confluency. After incubating the compounds for 16 hours, 10 mM galactose was added to the culture. After another 4 hours, cells were washed with cold PBS buffer 3× and harvested for gal-1P measurement, according to the previously published method. Liu et al., Bioorg. Med. Chem. Lett. 25(3): 721-727 (2015).

PAMPA permeability = conditions: PAMPA; for Papp: ADME P: PAMPA permeability (class), Tables 17-19, class probably colour-coded, colour lost
[3] = Tables 2-15, 35 μM ATP, 100 μM galactose, 1 h, bracketed figure after some values is undefined and not reported, read-out: mGALK IC50
[4] = recombinant mouse GALK1, Kinase-Glo Plus ATP depletion, read-out: mGALK
[5] = Tables 2-15, 35 μM ATP, 100 μM galactose, 1 h, bracketed figure after some values (e.g. −1.2) is undefined and not reported, read-out: hGALK IC50
[6] = recombinant human GALK1, Kinase-Glo Plus ATP depletion, read-out: hGALK
[7] = Tables 18-19, read-out: Max Response (%)
[8] = Tables 18-20 and text of Example 12
[9] = Tables 18-19 and text of Example 12
[10] = microsomal stability half-life, minutes
[11] = recombinant mouse GALK1, Kinase-Glo Plus ATP depletion, bracketed figure in the cell, e.g. (−1.2), is not defined in the text shown, read-out: mGALK
[12] = recombinant human GALK1, Kinase-Glo Plus ATP depletion, bracketed figure in the cell, e.g. (−1.2), is not defined in the text shown, read-out: hGALK

Chain of recombinant mouse GALK1 (Q9R0N0 whole entry): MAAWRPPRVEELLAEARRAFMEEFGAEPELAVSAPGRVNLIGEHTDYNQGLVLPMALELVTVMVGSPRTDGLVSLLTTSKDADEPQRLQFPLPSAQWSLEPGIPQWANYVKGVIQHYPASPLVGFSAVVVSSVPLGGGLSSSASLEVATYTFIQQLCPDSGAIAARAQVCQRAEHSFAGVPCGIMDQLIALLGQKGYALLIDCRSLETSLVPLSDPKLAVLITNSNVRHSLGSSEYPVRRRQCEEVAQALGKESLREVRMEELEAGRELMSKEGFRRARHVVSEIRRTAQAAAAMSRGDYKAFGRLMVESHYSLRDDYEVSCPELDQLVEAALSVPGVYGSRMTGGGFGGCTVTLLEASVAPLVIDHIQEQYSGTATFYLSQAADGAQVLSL

Row | Structure (SMILES) | Sol. ([2]; aqueous kinetic solubility) [µg/mL] | Perm. (1 × 10^−6 cm/sec) (PAMPA permeability) | Metab. Stabil. (m) [1, 10] [m] | IC50 (recombinant mouse GALK1; [11]) [µM] | IC50 (recombinant human GALK1; [12]) [µM] | also measured
1 | COc1ccc(C2N=C(Nc3nc4ccc(F)cc4o3)NC(C)=C2C(=O)Nc2cc(C(=O)O)ccn2)c(Cl)c1 (racemic) [Compound 46, 2-(4-(2-chloro-4-methoxyphenyl)-2-((6-fluorobenzo[d]oxazol-2-yl)amino)-6-methyl-1,4-dihydropyrimidine-5-carboxamido)isonicotinic acid] |  |  |  |  |  | Metab. Stabil. (m) ([1]; microsomal half-life): >30 m; half-life [1]: < 10 min; IC50 (recombinant mouse GALK1; [3]): 3.06 µM; IC50 (recombinant mouse GALK1; [4]): 3.06 µM; Sol. [2]: 8.3 µg/mL; IC50 (recombinant human GALK1; [5]): 0.43 µM; IC50 (recombinant human GALK1; [6]): 0.43 µM; change of potency versus parent compound (in words) (hGALK1m): little effect; Emax (hGALK1m; [7]): 100%; IC50 (hGALK1m; [8]): 0.3 µM; Papp (PAMPA permeability): < 10 ×10⁻⁶ cm/s
2 | CC1=C(C(=O)Nc2cc(C(=O)O)ccn2)C(c2ccccc2Cl)N=C(Nc2nc3c(F)cccc3o2)N1 (stereo not drawn) [Compound 8, 2-(4-(2-chlorophenyl)-6-methyl-2-((4-fluorobenzo[d]oxazol-2-yl)amino)-1,4-dihydropyrimidine-5-carboxamido)isonicotinic acid] |  |  |  |  |  | IC50 (recombinant mouse GALK1; [3]): 21.7 µM; IC50 (recombinant mouse GALK1; [4]): 21.7 µM; IC50 (recombinant human GALK1; [6]): 3.85 µM; Emax (hGALK1m; [7]): 100%; IC50 (hGALK1m; [9]): 3.3 µM
3 | CC1=C(C(=O)Nc2cc(C(=O)O)ccn2)C(c2ccccc2Cl)N=C(Nc2nc3cc(F)ccc3o2)N1 (stereo not drawn) [Compound 13, 2-(4-(2-chlorophenyl)-2-((5-fluorobenzo[d]oxazol-2-yl)amino)-6-methyl-1,4-dihydropyrimidine-5-carboxamido)isonicotinic acid] |  |  |  |  |  | half-life [1]: < 10 min; IC50 (recombinant mouse GALK1; [3]): 17.2 µM; IC50 (recombinant mouse GALK1; [4]): 17.2 µM; IC50 (recombinant human GALK1; [5]): 3.43 µM; Emax (hGALK1m; [7]): 100%; IC50 (hGALK1m; [9]): 3.6 µM; Papp (PAMPA permeability): < 10 ×10⁻⁶ cm/s
4 | CC1=C(C(=O)Nc2cc(C(=O)O)ccn2)C(c2cccc(F)c2Cl)N=C(Nc2nc3ccc(F)cc3o2)N1 (stereo not drawn) [Compound 48, 2-(4-(2-chloro-3-fluorophenyl)-2-((6-fluorobenzo[d]oxazol-2-yl)amino)-6-methyl-1,4-dihydropyrimidine-5-carboxamido)isonicotinic acid] |  |  |  |  |  | half-life [1]: < 10 min; IC50 (recombinant mouse GALK1; [3]): 15.3 µM; IC50 (recombinant mouse GALK1; [4]): 15.3 µM; IC50 (recombinant human GALK1; [5]): 4.85 µM; IC50 (recombinant human GALK1; [6]): 4.85 µM; change of potency versus parent compound (in words) (hGALK1m): compromised the potency; Emax (hGALK1m; [7]): 100%; IC50 (hGALK1m; [9]): 1.8 µM; Papp (PAMPA permeability): < 10 ×10⁻⁶ cm/s
5 | CC1=C(C(=O)Nc2ncc(C(=O)O)s2)C(c2ccccc2Cl)N=C(Nc2nc3ccccc3o2)N1 (stereo not drawn) [Compound 199, 2-(2-(benzo[d]oxazol-2-ylamino)-4-(2-chlorophenyl)-6-methyl-1,4-dihydropyrimidine-5-carboxamido)thiazole-5-carboxylic acid] | >75 | <1 1 × 10^−6 cm/sec |  |  |  | Metab. Stabil. (m) ([1]; microsomal stability half-life): >30 m; half-life [1]: < 10 min; IC50 (recombinant human GALK1; [5]): 1.72 µM; IC50 (recombinant human GALK1; [6]): 1.72 µM; Emax (hGALK1m; 1 h, Table 17, read-out: Efficacy): 91%; IC50 (hGALK1m; Table 17, amide group optimization, no unit in table): 1.7 µM; Papp (PAMPA permeability): < 10 ×10⁻⁶ cm/s
6 | CNC(=O)C1CC(=O)C2=C(C1)NC(Nc1nc3ccccc3o1)=NC2c1ccccc1Cl (stereo not drawn) [Compound 278, 2-(benzo[d]oxazol-2-ylamino)-4-(2-chlorophenyl)-N-methyl-5-oxo-1,4,5,6,7,8-hexahydroquinazoline-7-carboxamide] | <1 | 430.36 1 × 10^−6 cm/sec | >30 | 6.85 | 6.11 | 
7 | COCCNC(=O)C1CC(=O)C2=C(C1)NC(Nc1nc3ccccc3o1)=NC2c1ccccc1Cl (stereo not drawn) [Compound 280, 2-(benzo[d]oxazol-2-ylamino)-4-(2-chlorophenyl)-N-(2-methoxyethyl)-5-oxo-1,4,5,6,7,8-hexahydroquinazoline-7-carboxamide] | 4.23 | 747.27 1 × 10^−6 cm/sec | 10.16 | 4.85 | 4.85 | 
8 | O=C(O)CNC(=O)C1CC(=O)C2=C(C1)NC(Nc1nc3ccccc3o1)=NC2c1ccccc1Cl (stereo not drawn) [Compound 283, (2-(benzo[d]oxazol-2-ylamino)-4-(2-chlorophenyl)-5-oxo-1,4,5,6,7,8-hexahydroquinazoline-7-carbonyl)glycine] | 58.23 | <1 1 × 10^−6 cm/sec | >30 | 4.85 | 3.43 | 
9 | CN(C)CCNC(=O)C1CC(=O)C2=C(C1)NC(Nc1nc3ccccc3o1)=NC2c1ccccc1Cl (stereo not drawn) [Compound 284, 2-(benzo[d]oxazol-2-ylamino)-4-(2-chlorophenyl)-N-(2-(dimethylamino)ethyl)-5-oxo-1,4,5,6,7,8-hexahydroquinazoline-7-carboxamide] | 61.78 | <9.8 1 × 10^−6 cm/sec | >30 | 12.2 | 12.2 | 
10 | CC1=C(C(=O)Nc2cc(C(=O)O)ccn2)C(c2ccccc2Cl)N=C(Nc2nc3ccccc3o2)N1 (stereo not drawn) [R-enantiomer of Compound 194] |  |  |  |  |  | IC50 (hGALK1m; [9]): 15 µM
11 | CC1=C(C(=O)NCc2cnn(C)c2)[C@@H](c2ccc(C)cc2Cl)N=C(Nc2nc3cccc(N)c3o2)N1 [S-enantiomer of Compound 83] |  |  |  |  |  | IC50 (hGALK1m; [8]): 0.029 µM
12 | CC1=C(C(=O)Nc2cc(C(=O)O)ccn2)[C@@H](c2ccccc2Cl)N=C(Nc2nc3ccccc3o2)N1 [S-enantiomer of Compound 194] |  |  |  |  |  | IC50 (hGALK1m; [8]): 0.3 µM

Further lines, with some results ahead:

Row | Sol. ([2]; aqueous kinetic solubility) [µg/mL] | Perm. (1 × 10^−6 cm/sec) (PAMPA permeability) | Metab. Stabil. (m) [1, 10] [m] | IC50 (recombinant mouse GALK1; [11]) [µM] | IC50 (recombinant human GALK1; [12]) [µM] | Structure (SMILES) | also measured
13 | 52.63 | <1 1 × 10^−6 cm/sec | >30 | 6.85 | 3.85 | O=C1CC(C(=O)O)CC2=C1C(c1ccccc1Cl)N=C(Nc1nc3ccccc3o1)N2 (stereo not drawn) [Compound 276, 2-(benzo[d]oxazol-2-ylamino)-4-(2-chlorophenyl)-5-oxo-1,4,5,6,7,8-hexahydroquinazoline-7-carboxylic acid] | 
14 | 28.98 | <2 1 × 10^−6 cm/sec | >30 | 5.44 | 4.85 | O=C1CC(C(=O)NCCO)CC2=C1C(c1ccccc1Cl)N=C(Nc1nc3ccccc3o1)N2 (stereo not drawn) [Compound 279, 2-(benzo[d]oxazol-2-ylamino)-4-(2-chlorophenyl)-N-(2-hydroxyethyl)-5-oxo-1,4,5,6,7,8-hexahydroquinazoline-7-carboxamide] | 
15 | 1.23 | <5 1 × 10^−6 cm/sec | >30 | 12.2 | 6.85 | O=C1CC(C(=O)Nc2nncs2)CC2=C1C(c1ccccc1Cl)N=C(Nc1nc3ccccc3o1)N2 (stereo not drawn) [Compound 281, 2-(benzo[d]oxazol-2-ylamino)-4-(2-chlorophenyl)-5-oxo-N-(1,3,4-thiadiazol-2-yl)-1,4,5,6,7,8-hexahydroquinazoline-7-carboxamide] | 
16 | 23.88 | <4.7 1 × 10^−6 cm/sec | 30 | 7.69 | 6.85 | O=C1CC(C(=O)N2CCNCC2)CC2=C1C(c1ccccc1Cl)N=C(Nc1nc3ccccc3o1)N2 (stereo not drawn) [Compound 282, 2-(benzo[d]oxazol-2-ylamino)-4-(2-chlorophenyl)-7-(piperazine-1-carbonyl)-4,5,6,8-tetrahydroquinazolin-5(1H)-one] | 
